# Measured values as given in PubChem BioAssay AID179 (DTP/NCI, 2004).
# Values joined by “and” are separate entries in the source; they are usually repeats but may differ in a detail not shown here. Equal entries are not always repeated. Active and inactive are the calls of the source.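 The calls were made as follows: active = compounds giving half or more protection of infected cells from virus-caused growth loss, again on retest; inactive = the rest.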 Where a SMILES comes first, the peptide text is derived from it. The star is where a group is joined. Boc = CC(C)(C)OC(=O)*
# Tested on: CEM cells HIV-1 protection, formazan growth assay
# Assay: NCI AIDS Antiviral Assay
# Conditions: for IC50: measured here: growth of uninfected CEM cells
# Outline: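 Screen of anti-HIV-1 activity in human CEM cells using a formazan-based growth measurement at five drug concentrations. Hits with 50% or greater protection were repeated, and confirmation required reproducible complete protection.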
Structure (SMILES),EC50 [µM],IC50,outcome
COc1cc(/C=C2\C(=O)N(c3cccc(Cl)c3)C(c3ccccc3)S2(=O)=O)cc(OC)c1OC (stereo unspecified),> 200,112 µM,
Nc1nc(Cl)cc(NCC2(CO)CC(c3ccccc3)C2)n1 (stereo unspecified),> 20,1.58 µM,
CC1OC(OCC2OC(Oc3c(-c4ccc(O)cc4)oc4cc(OC5OC(C)C(O)C(O)C5O)cc(O)c4c3=O)C(O)C(O)C2O)C(O)C(O)C1O (stereo unspecified),,,active
NC(CSS(=O)(=O)O)=NCC1CCCCC1,> 200,58.9 µM,
CCCCCC=C(c1cc(Cl)c(OC)c(C(=O)OCCC)c1)c1cc(Cl)c(OC)c(C(=O)OCCC)c1,> 12.3,> 12.3 µM,
Cn1cc(N)cc1C(=O)Nc1cc(C(=O)Nc2cc(S(=O)(=O)O)c3cc(S(=O)(=O)O)cc(S(=O)(=O)O)c3c2)n(C)c1,53.7,339 µM,
CC(=O)NCCSSCCSC(=S)N1CCCCC1,> 200,33.9 µM,
CC1=NNC(=O)C1C1C(=O)NN=C(c2c[nH]c3ccccc23)C1Br (stereo unspecified),> 200,95.5 µM,
COc1ccc2c3c([nH]c(=O)c2c1C(=O)O)-c1ccccc1CC3,> 16.2,> 16.2 µM,
CCOC(=O)C(CCCC(C(=O)OCC)C(=O)OCC)C(=O)OCC,> 200,> 200 µM,
CN1CC(=O)NC2C(=CN(Cc3ccccc3)c3ccccc32)C1=O (stereo unspecified),> 200,> 200 µM,
CC(NC(=O)C(NC(=O)OC(C)(C)C)C(C)C)C(=O)N1CCCC1C(=O)O (stereo not drawn) (Boc-Val-Ala-Pro-OH; configuration not given here),> 200,> 200 µM,
CCOC(=O)/C(=N\O)C1=CSC2=NNC(C)(C)N12,> 200,115 µM,
c1ccc2sc(SCN3CCCCC3)nc2c1,> 200,81.3 µM,
CC(C(=O)c1ccccc1)C1(O)C(=O)Nc2ccccc21 (stereo unspecified),,,inactive
NCCC1([N+](=O)[O-])C=CN=CC1 (stereo unspecified),,,inactive
N#C/C=C/c1ccc(Cl)cc1,> 219,> 219 µM,
COc1cc(/C=C/C(=O)c2sc(-n3nc(-c4ccccc4)cc3-c3ccccc3)nc2C)ccc1O,> 14.5,> 14.5 µM,
N#Cc1c2n(c(=S)n(-c3ccccc3)c1=O)CCCCCCC2,> 200,162 µM,
N#C/C(=C/c1cccc2ccccc12)C(=O)c1ccccc1,> 13.2,> 13.2 µM,
C/C=C1\CNC2Cc3c([nH]c4ccccc34)C(=O)CC1C2C(=O)OC (stereo unspecified),,,inactive

Structure (SMILES),EC50 [µM],IC50,outcome
Cc1ccc(N/N=c2/ccc(=O)/c(=N\Nc3ccc(S(=O)(=O)O)cc3)c2=O)c(C)c1,> 200,> 200 µM,
CC(=O)n1nnc2ccc([N+](=O)[O-])cc21,> 34.7,> 34.7 µM,
CS(=O)(=O)OCCN(CCOS(C)(=O)=O)c1ccc(C=Nc2ccc(-c3csc(COc4ccccc4)n3)cc2)cc1,> 200,0.457 µM,
C(=NCCN=Cc1cccc2ccccc12)c1cccc2ccccc12,,,inactive
Nc1cc(C(=O)NC2C3CC4CC(C3)CC2C4)[nH]c(=S)n1 (stereo unspecified),> 813,> 813 µM,
CCOC(=O)c1ccc2c(=O)[nH]nc(CO)c2c1,> 200,117 µM,
Nc1[nH]c(=O)ncc1F,> 200,> 200 µM,
CCOC(=O)c1c(-c2ccccc2)c(-c2ccccc2)cn1C,> 200,46.8 µM,
CN(C)c1cc(CN[C@@H](Cc2cn(C(c3ccccc3)(c3ccccc3)c3ccccc3)cn2)C(=O)O)nc(CN[C@@H](Cc2cn(C(c3ccccc3)(c3ccccc3)c3ccccc3)cn2)C(=O)O)c1,> 100,19.5 µM,
CCN1CCN=c2c3cc(OC)ccc3n3cnc4ccc1c2c43,> 20,0.0955 µM,
O=C1Oc2cc(O)ccc2C2OCNCC12 (stereo unspecified),> 200,> 200 µM,
Nn1ccc(=O)c2c1-c1ccccc1C(c1ccccc1)c1ccccc1-2 (stereo unspecified),> 200,24 µM,
CCOP(=O)(OCC)/C(C#N)=C/c1ccc(C(F)(F)F)cc1,> 107,57.5 µM,
CC1CN(c2ccc(Cl)cc2)CC(C)(C)OC(=O)O1 (stereo unspecified),> 331,21.4 µM,
CCCCCCCCCCCCCCCCCC(=O)OCC(CN(C)CCN(C)C)OC(=O)CCCCCCCCCCCCCCCCC (stereo unspecified),,,inactive
CN1C(=O)C2CCCN2C(=O)C1(C)NC(=O)OCc1ccccc1 (stereo unspecified),> 269,> 269 µM,
CNC(=S)Nc1sc2c(c1C#N)CCCC2,148,151 µM,
COc1ccc(NS(=O)c2cccc(C)c2)cc1 (stereo unspecified),> 200,11.2 µM,
O=C(O)N1CCc2c(sc3ccccc23)C1,> 95.5,> 95.5 µM,
COC(=O)/C(=N\N)C(C(=O)C(=O)Nc1cccc([N+](=O)[O-])c1)c1nc2ccc(C(=O)c3ccccc3)cc2[nH]c1=O (stereo unspecified),> 64.6,> 64.6 µM,
O=c1cc(NNc2cccc3ccccc23)[nH]c(=O)[nH]1,> 200,4.9 µM,

Structure (SMILES),EC50 [µM],IC50,outcome
COc1ccc(CCN2CCOCC2)cc1,> 200,> 200 µM,
CCCC[C@H]1CCN2C[C@@H](O)[C@@H](O)[C@H]2[C@@H]1O,> 200,> 200 µM,
CCn1c(=O)c2nc(SC)sc2n(-c2ccccc2)c1=O,> 200,> 200 µM,
COc1cc(C(O)(CC#N)c2cc3c(cc2Br)OCO3)cc(OC)c1OC (stereo unspecified),> 200,10 µM,
Cc1nc2c(nc1C)C(=O)C(N1CCCCC1)=CC2=O,,,inactive
CSc1cc(-c2ccccn2)nc(-c2ccccn2)c1.CSc1cc(-c2ccccn2)nc(-c2ccccn2)c1.[Mn+2].[O-][Cl+3]([O-])([O-])[O-],> 0.2,0.0631 µM,
CC(C)C1(Cl)CCC2C3(C)CCCC(C)(C(=O)O)C3CC(Cl)C2(Cl)C1Cl (stereo unspecified),> 200,41.7 µM,
Nc1ccc(S(=O)(=O)NC(=O)c2ccccc2)cc1,> 200,> 200 µM,
C[C@@]1(CO)OC(=O)N2CCC[C@H]21,> 1450,> 1450 µM,
Oc1cccc2cc(Cl)cnc12,> 20,8.32 µM,
NC1=Nc2ncccc2C(=O)NN1,> 200,117 µM,
COc1cc(OC)cc(-n2c(N)c(-c3nc4ccccc4n3C)c3ccc([N+](=O)[O-])cc3c2=O)c1,> 200,> 200 µM,
COC(=O)C1(COCc2ccccc2)CCCC2OC21 (stereo unspecified),,,inactive
O=c1c2ccccc2oc2ccccc12,> 26.3,> 26.3 µM,
Fc1ccc(/C=C2\COCC3=C2NC(=S)NC3c2ccc(F)cc2)cc1 (stereo unspecified),,,inactive
S=C1Cc2c([nH]c3ccccc23)-c2ccccc2N1,> 200,129 µM,
CC1(C)OCC(C2OC3OC(C)(C)OC3C2OC(=S)SSC(=S)OC2C(C3COC(C)(C)O3)OC3OC(C)(C)OC32)O1 (stereo unspecified),> 200,16.6 µM,
CN(NC(=O)/C(=C/c1cc(Cl)cc(Cl)c1O)NC(=O)c1ccccc1)c1cnn(-c2ccccc2)c(=O)c1Cl,> 200,37.2 µM,
O=c1[nH][n+]([O-])cc2c(C(O)=C(O)O)c[nH]c12,,,inactive
COC1O[C@H]2CCN(C(=O)OCc3ccccc3)[C@H]2[C@H]1OCc1ccccc1 (stereo partly specified),> 35.5,> 35.5 µM,
COc1ccc(Nc2nc3c(N)cc(C(F)(F)F)cc3nc2-c2ccccc2)cc1OC,> 16.2,> 16.2 µM,

Structure (SMILES),EC50 [µM],IC50,outcome
O=C(OCCN=C1c2ccccc2CCc2ccccc21)c1ccccc1,> 200,> 200 µM,
COC(=O)C1(C)C=CC(=O)C2(C)C1C(O)C1OC3CC(c4ccoc4)C(C)=C3C1(C)C2CC(=O)O (stereo unspecified),> 490,> 490 µM,
c1ccc(OCc2nnc3n2N=C(c2ccccc2)CS3)cc1,,,inactive
O=c1c(Cc2ccccc2)c(O)cc2n1CCC2,> 148,> 148 µM,
C/C(CN1C(=O)c2ccccc2C1=O)=N\NS(=O)(=O)c1ccc(C)cc1,> 355,> 355 µM,
Cc1ccc(C2=C/C(=C/c3ccc(N(CCC#N)CCC#N)cc3)C(=O)O2)cc1C,> 13.2,> 13.2 µM,
O=C(O)CC[P+](c1ccccc1)(c1ccccc1)c1ccccc1,> 200,21.9 µM and > 200 µM,
CC(=O)Nc1ccc(Nc2cc(=O)[nH]c(=O)[nH]2)cc1,> 200,> 200 µM,
COC1/C=C/OC2(C)Oc3c(C)c(O)c4c(O)c(c(/C=N/N5C(C)CN(Cc6cccc(O)c6)CC5C)c(O)c4c3C2=O)NC(=O)/C(C)=C\C=C\C(C)C(O)C(C)C(O)C(C)C(OC(C)=O)C1C (stereo unspecified),> 200,6.46 µM,
CN=C(NCCCN1CCOCC1)c1ccc(NC(=O)c2ccc(C(=O)Nc3ccc(C(=NC)NCCCN4CCOCC4)cc3)cc2)cc1,> 200,120 µM,
c1ccc(-c2nc3sc(-c4ccccc4)nc3s2)cc1,> 200,> 200 µM,
O=[N+]([O-])c1ccc(CSC2=C(c3ccc(Cl)cc3)S/C(=C3\SC(SCc4ccc([N+](=O)[O-])cc4)=C(c4ccc(Cl)cc4)S3)S2)cc1,> 200,> 200 µM,
CS(C)=O,> 200,> 200 µM,
O=c1[nH]c2nc(SCc3ccccc3)n(Cc3ccccc3)c2c(=O)n1OS(=O)(=O)c1ccccc1,> 200,75.9 µM,
COC(=O)C1=C(C)NC2=C(C(=O)CCC2)C1CCSC (stereo unspecified),,,inactive
COc1cc(/C=C\C(=O)O)ccc1O,> 200,> 200 µM,
O=C(NCCc1ccccc1)/C(=C\c1ccc(Cl)cc1Cl)NC(=O)c1ccccc1,> 200,> 200 µM,
CNCc1c2c(O)c3c(O)c(C)c4c(c3c1O)C(=O)C(C)(O/C=C/C(OC)C(C)C(OC(C)=O)C(C)C(O)C(C)C(O)C(C)/C=C/C=C(/C)C(=O)N2)O4 (stereo unspecified),> 200,16.6 µM,
C=CCCC12CCCC(=O)C1Sc1ccc3ccccc3c12 (stereo unspecified),> 12.3,> 12.3 µM,
CC(C)(C)[Si](C)(C)OC1C(C/[N+]([O-])=N\Nc2ccc([N+](=O)[O-])cc2)OC(n2ccc(=O)[nH]c2=O)C1O[Si](C)(C)C(C)(C)C (stereo unspecified),> 200,1.95 µM,
COCCOCCOCCOCCOCCOCCOCCOCCOCCOCCOCCOCCOCCOCCOCCOCCOCC(=O)N(CCn1ccc(N)nc1=O)CCn1cnc2nc(N)[nH]c(=O)c21,> 117,> 117 µM,
